Measurements from the NIST ThermoML archive (doi:10.1016/j.fluid.2010.02.010).

Key:
[1] = activity coefficient (dimensionless); of the first substance listed, at infinite dilution; xn = mol fraction of the nth substance listed; settings: 101 kPa, Liquid, x1 = 0
[2] = excess molar enthalpy (molar enthalpy of mixing); xn = mol fraction of the nth substance listed; settings: 101 kPa, Liquid, Flow calorimetry
[3] = 101.33 kPa, Liquid, Vibrating tube method

CCCCCCC [heptane] + CCCCn1cc[n+](C)c1.O=S(=O)([O-])C(F)(F)F
activity coefficient, [1]
Settings | 303.12 K | 303.45 K | 313.15 K | 323.12 K | 323.14 K | 333.15 K | 333.21 K
Chromatography | – | 45 | 42.4 | – | 39.8 | 37 | –
Dilutor technique | 45 | – | 42.3 | 39.8 | – | – | 36.9

CCCCn1cc[n+](C)c1.O=S(=O)([O-])C(F)(F)F [1-butyl-3-methylimidazolium trifluoromethanesulfonate] + C=CCCCC
[2], 413.15 K
Settings | excess molar enthalpy [kcal/mol]
x2 = 0.0431 | 0.0234
x2 = 0.0845 | 0.0443
x2 = 0.1632 | 0.0602
x2 = 0.2004 | 0.0576
x2 = 0.2364 | 0.0555
x2 = 0.3049 | 0.0508
x2 = 0.3691 | 0.0468
x2 = 0.4292 | 0.0423
x2 = 0.5391 | 0.0335
x2 = 0.637 | 0.0269
x2 = 0.7247 | 0.0206
x2 = 0.8404 | 0.0125
x2 = 0.9405 | 0.00488

C=CCCCC [hex-1-ene] + CCCCCCCCn1cc[n+](C)c1.O=S(=O)([O-])C(F)(F)F
[1], dilutor technique
Settings | activity coefficient
303.13 K | 4.68
313.13 K | 4.61
323.16 K | 4.57
333.16 K | 4.53

CCCCn1cc[n+](C)c1.O=S(=O)([O-])C(F)(F)F [1-butyl-3-methylimidazolium trifluoromethanesulfonate] + CCCCCCC
[2]
Settings | excess molar enthalpy [kcal/mol]
363.15 K, x2 = 0.02 | 0.0178
363.15 K, x2 = 0.0501 | 0.0321
363.15 K, x2 = 0.1001 | 0.0421
363.15 K, x2 = 0.1502 | 0.0435
363.15 K, x2 = 0.2002 | 0.0418
363.15 K, x2 = 0.3003 | 0.037
363.15 K, x2 = 0.4003 | 0.0312
363.15 K, x2 = 0.5003 | 0.0263
363.15 K, x2 = 0.6003 | 0.0207
363.15 K, x2 = 0.7003 | 0.0152
363.15 K, x2 = 0.8002 | 0.00987
363.15 K, x2 = 0.9001 | 0.00492
413.15 K, x2 = 0.0371 | 0.073
413.15 K, x2 = 0.1085 | 0.0833
413.15 K, x2 = 0.143 | 0.0831
413.15 K, x2 = 0.1766 | 0.0805
413.15 K, x2 = 0.2094 | 0.0775
413.15 K, x2 = 0.2729 | 0.0713
413.15 K, x2 = 0.3335 | 0.0655
413.15 K, x2 = 0.3915 | 0.0611
413.15 K, x2 = 0.5002 | 0.0505
413.15 K, x2 = 0.6002 | 0.0409
413.15 K, x2 = 0.6925 | 0.0319
413.15 K, x2 = 0.8183 | 0.0198
413.15 K, x2 = 0.9311 | 0.0076

C=CCCCCC [1-heptene] + CCCCCCn1cc[n+](C)c1.O=S(=O)([O-])C(F)(F)F
activity coefficient, [1]
Settings | 303.14 K | 303.16 K | 313.15 K | 313.17 K | 323.15 K | 333.14 K | 333.18 K
Chromatography | 11.2 | – | 10.8 | – | 10.6 | 10.4 | –
dilutor technique | – | 11 | – | 10.6 | 10.4 | – | 10.1

C=CCCCC [hex-1-ene] + CCCCn1cc[n+](C)c1.O=S(=O)([O-])C(F)(F)F
activity coefficient, [1]
Settings | 303.17 K | 303.45 K | 313.15 K | 313.36 K | 323.14 K | 323.15 K | 333.14 K | 333.18 K
Chromatography | – | 14.4 | – | 14 | 13.5 | – | 13 | –
Dilutor technique | 14.3 | – | 13.8 | – | – | 13.5 | – | 12.9

CCCCn1cc[n+](C)c1.O=S(=O)([O-])C(F)(F)F [1-butyl-3-methylimidazolium trifluoromethanesulfonate] + CCCCCC
[2], 413.15 K
Settings | excess molar enthalpy [kcal/mol]
x2 = 0.0413 | 0.0571
x2 = 0.1199 | 0.0756
x2 = 0.1573 | 0.0722
x2 = 0.1936 | 0.0687
x2 = 0.2287 | 0.0655
x2 = 0.2958 | 0.0595
x2 = 0.359 | 0.0545
x2 = 0.4186 | 0.0494
x2 = 0.5283 | 0.0413
x2 = 0.6269 | 0.0317
x2 = 0.7159 | 0.0248
x2 = 0.8344 | 0.0148
x2 = 0.938 | 0.00684

CCCCCC [hexane] + CCCCCCn1cc[n+](C)c1.O=S(=O)([O-])C(F)(F)F
[1], dilutor technique
Settings | activity coefficient
303.11 K | 12.8
313.16 K | 11.9
323.17 K | 11.4
333.17 K | 10.9

C=CCCCCC [1-heptene] + CCCCn1cc[n+](C)c1.O=S(=O)([O-])C(F)(F)F
activity coefficient, [1]
Settings | 303.17 K | 303.45 K | 313.13 K | 313.15 K | 323.14 K | 323.16 K | 333.15 K | 333.16 K
Chromatography | – | 21.8 | – | 21.3 | 20.6 | – | 19.9 | –
Dilutor technique | 22.1 | – | 21.2 | – | – | 20.2 | – | 19.7

C=CCCCCC [1-heptene] + CCCCCCCCn1cc[n+](C)c1.O=S(=O)([O-])C(F)(F)F
[1], dilutor technique
Settings | activity coefficient
303.21 K | 6.11
313.15 K | 6.03
323.14 K | 5.97
333.12 K | 5.89

CCCCCCCC [octane] + CCCCCCn1cc[n+](C)c1.O=S(=O)([O-])C(F)(F)F
activity coefficient, [1]
Settings | 303.14 K | 303.16 K | 313.15 K | 313.18 K | 323.15 K | 323.16 K | 333.14 K
Chromatography | 27.2 | – | 25.8 | – | 24.8 | – | 23.8
dilutor technique | – | 27.1 | – | 25.5 | – | 24.6 | 23.4

CCCCCCCC [octane] + CCCCCCCCn1cc[n+](C)c1.O=S(=O)([O-])C(F)(F)F
[1], dilutor technique
Settings | activity coefficient
303.16 K | 12.6
313.14 K | 12.2
323.14 K | 12
333.11 K | 11.7

CCCCCCC [heptane] + CCCCCCCCn1cc[n+](C)c1.O=S(=O)([O-])C(F)(F)F
[1], dilutor technique
Settings | activity coefficient
303.16 K | 9.59
313.14 K | 9.42
323.14 K | 9.26
333.11 K | 9.06

CCCCCCCCn1cc[n+](C)c1.O=S(=O)([O-])C(F)(F)F [1-octyl-3-methylimidazolium trifluoromethanesulfonate]
[3]
Settings | mass density [kg/m3]
293.15 K | 1197
298.15 K | 1193.2
303.15 K | 1189.5
308.14 K | 1185.8
313.15 K | 1182.1
318.15 K | 1178.4
323.14 K | 1174.7
328.14 K | 1171.1
333.14 K | 1167.4
338.14 K | 1163.7
343.15 K | 1160.1
348.15 K | 1156.5
353.14 K | 1152.9

CCCCCC [hexane] + CCCCn1cc[n+](C)c1.O=S(=O)([O-])C(F)(F)F
activity coefficient, [1]
Settings | 303.16 K | 303.45 K | 313.15 K | 313.19 K | 323.14 K | 323.16 K | 333.15 K | 333.22 K
Chromatography | – | 29.8 | 28.4 | – | 26.5 | – | 24.8 | –
Dilutor technique | 29 | – | – | 27.7 | – | 25.9 | – | 24.5

CCCCCCn1cc[n+](C)c1.O=S(=O)([O-])C(F)(F)F [1-hexyl-3-methylimidazolium trifluoromethanesulfonate] + C=CCCCC
[2], 413.15 K
Settings | excess molar enthalpy [kcal/mol]
x2 = 0.0407 | 0.00805
x2 = 0.0604 | 0.0117
x2 = 0.0797 | 0.0159
x2 = 0.0987 | 0.0205
x2 = 0.1172 | 0.0245
x2 = 0.1353 | 0.0282

C=CCCCCCC [oct-1-ene] + CCCCCCCCn1cc[n+](C)c1.O=S(=O)([O-])C(F)(F)F
[1], dilutor technique
Settings | activity coefficient
303.21 K | 8
313.15 K | 7.86
323.14 K | 7.79
333.12 K | 7.66

C=CCCC [1-pentene] + CCCCCCn1cc[n+](C)c1.O=S(=O)([O-])C(F)(F)F
[1], dilutor technique
Settings | activity coefficient
303.18 K | 4.62
313.15 K | 4.58
323.16 K | 4.54
333.15 K | 4.51

C=CCCCC [hex-1-ene] + CCCCCCn1cc[n+](C)c1.O=S(=O)([O-])C(F)(F)F
[1], dilutor technique
Settings | activity coefficient
303.18 K | 7.4
313.15 K | 7.23
323.16 K | 7.03
333.15 K | 6.86

CCCCC [pentane] + CCCCn1cc[n+](C)c1.O=S(=O)([O-])C(F)(F)F
[1], Dilutor technique
Settings | activity coefficient
313.19 K | 18
323.16 K | 17.5
333.22 K | 16.8

CCCCCCn1cc[n+](C)c1.O=S(=O)([O-])C(F)(F)F [1-hexyl-3-methylimidazolium trifluoromethanesulfonate]
[3]
Settings | mass density [kg/m3]
308.16 K | 1231.4
313.16 K | 1227.6
318.16 K | 1223.8
323.16 K | 1220
328.16 K | 1216.2
333.16 K | 1212.5
338.16 K | 1208.7
343.16 K | 1205
348.15 K | 1201.3

C=CCCCCCC [oct-1-ene] + CCCCCCn1cc[n+](C)c1.O=S(=O)([O-])C(F)(F)F
activity coefficient, [1]
Settings | 303.14 K | 303.16 K | 313.15 K | 313.17 K | 323.15 K | 333.14 K | 333.18 K
Chromatography | 15.4 | – | 15 | – | 14.6 | 14.3 | –
dilutor technique | – | 15 | – | 14.5 | 14.2 | – | 13.7

CCCCCC [hexane] + CCCCCCCCn1cc[n+](C)c1.O=S(=O)([O-])C(F)(F)F
[1], dilutor technique
Settings | activity coefficient
303.15 K | 7.25
323.16 K | 7.15
333.18 K | 7.09

C=CCCCCCC [oct-1-ene] + CCCCn1cc[n+](C)c1.O=S(=O)([O-])C(F)(F)F
activity coefficient, [1]
Settings | 303.17 K | 303.45 K | 313.13 K | 313.15 K | 323.14 K | 323.16 K | 333.15 K | 333.16 K
Chromatography | – | 33.7 | – | 32 | 30.6 | – | 29.3 | –
Dilutor technique | 33.3 | – | 31.5 | – | – | 29.9 | – | 29

CCCCCCC [heptane] + CCCCCCn1cc[n+](C)c1.O=S(=O)([O-])C(F)(F)F
[1], dilutor technique
Settings | activity coefficient
303.16 K | 19.2
313.18 K | 18
323.16 K | 17.4
333.14 K | 16.6

CCCCCCCC [octane] + CCCCn1cc[n+](C)c1.O=S(=O)([O-])C(F)(F)F
activity coefficient, [1]
Settings | 303.12 K | 303.15 K | 313.15 K | 313.36 K | 323.12 K | 323.15 K | 333.15 K | 333.21 K
Chromatography | – | 71.2 | – | 65.5 | – | 60.3 | 55.2 | –
Dilutor technique | 70.3 | – | 65.6 | – | 60.1 | – | – | 55.7

C=CCCC [1-pentene] + CCCCn1cc[n+](C)c1.O=S(=O)([O-])C(F)(F)F
activity coefficient, [1]
Settings | 303.45 K | 313.15 K | 323.15 K | 333.15 K | 333.18 K
Chromatography | 10.1 | 9.69 | 9.48 | 9.18 | –
Dilutor technique | – | 9.55 | 9.34 | – | 9.06
